“And” between values parts separate entries of the source, which are not always exact repeats. Identical values can stand only once. Like-named read-outs stand apart in the source and are kept apart here.
Test system: PD-1-overexpressing Jurkat cells
Experiment: Small molecule screen: IL2 secretion (AlphaLISA) from stimulated PD-1-overexpressing Jurkat cells
Format: cell-based, human
Procedure, shortened: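 Cells (100,000/well) with compound at 3.3 μM final, stimulated by α-CD3/α-CD28/α-PD-1 Dynabeads at an 8:1 bead:cell ratio. IL2 in supernatants measured by AlphaLISA. Hits scored ≥3 SD from the mean of DMSO-treated, α-PD-1-bead-stimulated controls.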

[1] = IL2 level, replicate 1, 3.3 μM compound, α-CD3/α-CD28/α-PD-1 beads
[2] = IL2 level, replicate 2, 3.3 μM compound, α-CD3/α-CD28/α-PD-1 beads
[3] = average of replicate Z scores, 3.3 μM compound

MEK1/2 Inhibitor II
Zscore_1 [1]: −8.274
Zscore_2 [2]: −7.766
Zscore_AVG [3]: −8.02

COc1ccc(C(=O)Nc2sc3c(c2C(N)=O)CCCC3)cc1OC [Flt-3 Inhibitor]
Zscore_1 [1]: 1.516
Zscore_2 [2]: 2.085
Zscore_AVG [3]: 1.801

N/C(=N\[N+](=O)[O-])N/N=C\c1ccc(-c2cccc([N+](=O)[O-])c2)o1 [ERK Inhibitor III]
Zscore_1 [1]: 0.9783
Zscore_2 [2]: 2.555
Zscore_AVG [3]: 1.767

PI 3-KbInhibitor II
Zscore_2 [2]: 2.315
Zscore_AVG [3]: 1.096

Nc1n[nH]c(N)c1N=Nc1ccc(O)cc1 [Cdk9 Inhibitor II]
Zscore_1 [1]: −0.7951
Zscore_2 [2]: 0.1385
Zscore_AVG [3]: −0.3283

c1cc(-c2cnn3cc(-c4ccc(OCCN5CCCCC5)cc4)cnc23)ccn1 [AMPK Inhibitor, Compound C]
Zscore_1 [1]: −2.877
Zscore_2 [2]: 1.296
Zscore_AVG [3]: −0.7902

N#C/C(=C(/N)Sc1ccccc1N)c1cccc(C(O)c2ccncc2)c1 (centres unmarked) [MEK Inhibitor I]
Zscore_1 [1]: −4.599
Zscore_2 [2]: −4.873
Zscore_AVG [3]: −4.736

NC(=O)c1ccc2nc(-c3ccc(Oc4ccc(Cl)cc4)cc3)[nH]c2c1 [Chk2 Inhibitor II]
Zscore_1 [1]: 2.673
Zscore_2 [2]: 1.942
Zscore_AVG [3]: 2.307

Nc1cccc(-c2cc3c(Oc4cccc(O)c4)ncnc3[nH]2)c1 [GSK-3b Inhibitor XII, TWS119]
Zscore_1 [1]: −1.059
Zscore_2 [2]: −1.321
Zscore_AVG [3]: −1.19

O=C(O)c1ccc2c3c1cccc3c(=O)n1c3ccccc3nc21 [STO-609]
Zscore_1 [1]: −1.71
Zscore_2 [2]: −1.025
Zscore_AVG [3]: −1.368

N#CC(c1ccnc(NCCc2cccnc2)n1)c1nc2ccccc2s1 (centres unmarked) [JNK Inhibitor V]
Zscore_1 [1]: −0.3788
Zscore_2 [2]: 3.626
Zscore_AVG [3]: 1.623

N#Cc1c(NC(=O)c2cccc3ccccc23)sc2c1CCCC2 [JNK Inhibitor IX]
Zscore_1 [1]: 0.5842
Zscore_2 [2]: −0.05285
Zscore_AVG [3]: 0.2657

O=C1NC(=O)/C(=C/c2ccc3nccnc3c2)S1 [PI 3-Kg Inhibitor]
Zscore_1 [1]: 0.8957
Zscore_2 [2]: 2.23
Zscore_AVG [3]: 1.563

CN[C@@H]1C[C@H]2O[C@@](C)([C@@H]1OC)n1c3ccccc3c3c4c(c5c6ccccc6n2c5c31)C(=O)NC4 [Staurosporine, Streptomyces sp.]
Zscore_1 [1]: −6.893 and −7.431
Zscore_2 [2]: −9.439 and −9.651
Zscore_AVG [3]: −8.166 and −8.541

CC(=O)O/N=C1/C(=C2/C(=O)Nc3cc(Br)ccc32)Nc2ccccc21 [GSK-3 Inhibitor X]
Zscore_1 [1]: 28.58
Zscore_2 [2]: 35.89
Zscore_AVG [3]: 32.23

CCN(CC)CCCCN1c2ccccc2Oc2ccc(Cl)cc21 [Akt Inhibitor X]
Zscore_1 [1]: 2.25
Zscore_2 [2]: 6.382
Zscore_AVG [3]: 4.316

O=c1[nH][nH]c2nnc(-c3c(-c4ccccc4)nn4ccccc34)cc12 [ERK Inhibitor II, Negative Control]
Zscore_1 [1]: −1.778
Zscore_2 [2]: 1.052
Zscore_AVG [3]: −0.3634

O=c1cc(N2CCOCC2)oc2c(-c3ccccc3)cccc12 [LY 294002]
Zscore_1 [1]: −1.451
Zscore_2 [2]: 0.6923
Zscore_AVG [3]: −0.3791

COc1cc2ncn(-c3cc(OCc4ccccc4S(C)(=O)=O)c(C#N)s3)c2cc1OC [IKK-3 Inhibitor IX]
Zscore_1 [1]: 3.754
Zscore_2 [2]: 2.454
Zscore_AVG [3]: 3.104

O=C(Nc1ccc(Cl)cc1)c1ccccc1NCc1ccncc1 [VEGF Receptor Tyrosine Kinase Inhibitor II]
Zscore_1 [1]: −1.404
Zscore_2 [2]: −0.1009
Zscore_AVG [3]: −0.7522

Cc1ccc([N+](=O)[O-])cc1S(=O)(=O)N(C)/N=C/c1cnc2ccc(Br)cn12.Cl [PI 3-Kα Inhibitor VIII]
Zscore_1 [1]: −7.658
Zscore_2 [2]: −10.33
Zscore_AVG [3]: −8.993

Cn1cnc2cc3c(Nc4cccc(Br)c4)ncnc3cc21 [BPIQ-I]
Zscore_1 [1]: 0.6533
Zscore_2 [2]: 1.97
Zscore_AVG [3]: 1.312

O=C1Nc2ccccc2/C1=C1/Nc2ccccc2/C1=N\OCC(O)CO (centres unmarked) [Indirubin Derivative E804]
Zscore_1 [1]: 20.78
Zscore_2 [2]: 24.43
Zscore_AVG [3]: 22.6

O=C1NC(=O)C(c2c[nH]c3ccccc23)=C1c1c[nH]c2ccccc12 [Bisindolylmaleimide IV]
Zscore_1 [1]: −2.073
Zscore_2 [2]: −2.336
Zscore_AVG [3]: −2.205

Cc1ncc2ccccc2c1C#N [4-Cyano-3-methylisoquinoline]
Zscore_1 [1]: −0.7566
Zscore_2 [2]: 0.1385
Zscore_AVG [3]: −0.3091

NC(=O)c1ccc(-c2nc(-c3ccc4c(c3)OCCO4)c(-c3ccccn3)[nH]2)cc1 [Casein Kinase I Inhibitor, D4476]
Zscore_1 [1]: −1.219
Zscore_2 [2]: 1.296
Zscore_AVG [3]: 0.03862

Nc1ccc(-c2cccc3c(=O)cc(N4CCOCC4)oc23)cc1 [LY 294002,4-NH2]
Zscore_1 [1]: 3.33
Zscore_2 [2]: 7.54
Zscore_AVG [3]: 5.435

Oc1ccc(-c2nc(-c3ccc(F)cc3)c(-c3ccncc3)[nH]2)cc1 [SB 202190]
Zscore_1 [1]: −1.512
Zscore_2 [2]: −3.097
Zscore_AVG [3]: −2.304

O=c1[nH]c2ccccc2n1C1CCN(Cc2ccc(-c3nc4cc5nc[nH]c5cc4nc3-c3ccccc3)cc2)CC1 [Akt Inhibitor VIII, Isozyme- Selective, Akti-1/2]
Zscore_1 [1]: 1.673
Zscore_2 [2]: 1.052
Zscore_AVG [3]: 1.362

O=C(c1ccccc1)c1ccc(N2CCOCC2)cc1O [DNA-PK Inhibitor V]
Zscore_1 [1]: −2.22
Zscore_2 [2]: −4.112
Zscore_AVG [3]: −3.166

CC[C@@H](CO)Nc1nc(NCc2ccc(-c3ccccn3)cc2)c2ncn(C(C)C)c2n1 (single isomer, unassigned) [CR8, (S)-Isomer]
Zscore_1 [1]: −10.2
Zscore_2 [2]: −10.59
Zscore_AVG [3]: −10.39

O=c1c(-c2ccc(F)cc2)c(-c2ccncc2)[nH]n1-c1ccc(Cl)cc1 [p38 MAP Kinase Inhibitor]
Zscore_1: −0.7181
Zscore_2: −1.986
Zscore_AVG: −1.352

O=C1NCCc2[nH]c(-c3ccncc3)cc21 [Cdc7/Cdk9 Inhibitor]
Zscore_1 [1]: −9.816
Zscore_2 [2]: −10.33
Zscore_AVG [3]: −10.08

CN(C)CCCn1cc(C2=C(c3c[nH]c4ccccc34)C(=O)NC2=O)c2ccccc21 [Bisindolylmaleimide I]
Zscore_1 [1]: −9.431
Zscore_2 [2]: −8.32
Zscore_AVG [3]: −8.875

O=C1NC(=NCc2cccs2)S/C1=C\c1ccc2ncccc2c1 [Cdk1 Inhibitor IV, RO-3306]
Zscore_1 [1]: −4.188
Zscore_2 [2]: −2.228
Zscore_AVG [3]: −3.208

CCCCCCOC(=O)[C@]1(O)C[C@@H]2O[C@@]1(C)n1c3ccccc3c3c4c(c5c6ccccc6n2c5c31)C(=O)NC4 [KT5720]
Zscore_1 [1]: 10.81
Zscore_2 [2]: 13.17
Zscore_AVG [3]: 11.99

Cdk Inhibitor, p35
Zscore_1 [1]: −1.994
Zscore_2 [2]: −1.733
Zscore_AVG [3]: −1.864

N#C/C(=C(/N)Sc1ccc(N)cc1)c1ccccc1C(F)(F)F [MEK 1/2 Inhibitor]
Zscore_1 [1]: −4.769
Zscore_2 [2]: −6.395
Zscore_AVG [3]: −5.582

CC[C@H](CO)Nc1nc(NCc2ccccc2O)c2ncn(C(C)C)c2n1 [Olomoucine II]
Zscore_1 [1]: 0.3445
Zscore_2 [2]: 2.103
Zscore_AVG [3]: 1.224

CC[C@H](CO)Nc1nc(NCc2ccc(-c3ccccn3)cc2)c2ncn(C(C)C)c2n1 (single isomer, unassigned) [CR8, (R)-Isomer]
Zscore_1 [1]: −9.662
Zscore_2 [2]: −6.961
Zscore_AVG [3]: −8.311

O=C1Nc2cc(Br)ccc2/C1=C1/Nc2ccccc2/C1=N\O [GSK-3 Inhibitor IX]
Zscore_1 [1]: 25.07
Zscore_2 [2]: 34.88
Zscore_AVG [3]: 29.98

CCN(CC)C(=O)c1ccc(Nc2nc(OCC3CCCCC3)c3[nH]cnc3n2)cc1 [Cdk2 Inhibitor IV, NU6140]
Zscore_1 [1]: −4.843
Zscore_2 [2]: −6.155
Zscore_AVG [3]: −5.499

O=C1Cc2c([nH]c3ccc(Br)cc23)-c2ccccc2N1 [Kenpaullone]
Zscore_1 [1]: −0.7695
Zscore_2 [2]: −1.747
Zscore_AVG [3]: −1.258

COc1cc2ncnc(Nc3ccc(O)c(Br)c3)c2cc1OC [JAK3 Inhibitor II]
Zscore_1 [1]: −0.7783
Zscore_2 [2]: −1.36
Zscore_AVG [3]: −1.069

CC#CC(=O)Nc1cc2c(Nc3ccc(F)c(Cl)c3)ncnc2cn1 [EGFR/ErbB-2/ErbB-4 Inhibitor]
Zscore_1 [1]: 0.4572
Zscore_2 [2]: 0.3338
Zscore_AVG [3]: 0.3955

Ic1cccc(CSc2nnc(-c3ccncc3)o2)c1 [GSK-3b Inhibitor II]
Zscore_1 [1]: −2.376
Zscore_2 [2]: −0.4154
Zscore_AVG [3]: −1.396

O=[N+]([O-])c1ccc(CNc2nc(NCc3cccc(C(F)(F)F)c3)nc3nc[nH]c23)cc1 [IP3K Inhibitor]
Zscore_1 [1]: 1.006
Zscore_2 [2]: −0.0969
Zscore_AVG [3]: 0.4547

O=c1c(O)c(-c2ccc(O)c(O)c2)oc2cc(O)c(O)c(O)c12 [Quercetagetin]
Zscore_1 [1]: −1.427
Zscore_2 [2]: −1.66
Zscore_AVG [3]: −1.543

COc1cc2ncnc(N3CCN(C(=O)Nc4ccc(Oc5ccccc5)cc4)CC3)c2cc1OC [PDGF Receptor Tyrosine Kinase Inhibitor III]
Zscore_1 [1]: 1.681
Zscore_2 [2]: 3.032
Zscore_AVG [3]: 2.357

CC[n+]1c(/C=C/N(C)c2ccccc2)n(-c2ccccc2)c2ccc(-c3nc4ccccc4s3)cc21.[I-] [Akt Inhibitor IV]
Zscore_1 [1]: −5.269
Zscore_2 [2]: −6.844
Zscore_AVG [3]: −6.057

O=C(Nc1ccncc1)Nc1c(Cl)cc(Cl)cc1Cl [Rho Kinase Inhibitor II]
Zscore_1 [1]: −1.746
Zscore_2 [2]: −1.88
Zscore_AVG [3]: −1.813
